In patent US7319109B2, “Farnesoid X receptor agonists” (Smith Kline Beecham Corporation, priority 2002, dated 2008):

Each compound was assayed against T1, Human FXRα Ligand Binding Domain (FXRα LBD) (Homo sapiens, UniProt Q96RI1) (assay: FXR Affinity Binding Assay: ligand mediated cofactor peptide (SRC-1 LCD2, 676-700) interaction, time resolved fluorescence). Settings: FXRα LBD-APC / europium labeled SRC-1 peptide, TRF signal, at least 2 hours at room temperature; read-out: Activity (pEC50) (converted).
T1 construct: polyhistidine (N); made in house; host or cells: E. coli BL21 (DE3), pRSET-A vector
T1 sequence (Q96RI1 222-472 isoform Q96RI1-2): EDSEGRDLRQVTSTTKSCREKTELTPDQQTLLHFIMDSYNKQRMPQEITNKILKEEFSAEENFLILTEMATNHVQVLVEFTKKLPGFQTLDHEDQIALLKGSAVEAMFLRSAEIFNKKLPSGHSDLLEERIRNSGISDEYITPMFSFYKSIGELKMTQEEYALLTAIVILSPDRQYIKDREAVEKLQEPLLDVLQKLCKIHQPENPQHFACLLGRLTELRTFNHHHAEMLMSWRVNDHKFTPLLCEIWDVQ
Method: Determination of a ligand mediated cofactor peptide interaction to quantify ligand binding to the nuclear receptor Farnasoid X Receptor (FXR). The method measures the ability of putative ligands to modulate the interaction between the purified bacterial expressed FXRα (LBD) and a synthetic biotinylated peptide based on residues 676-700 of SRC-1(LCD2, 676-700). […] Detection of the associated complex is measured by time resolved fluorescence (TRF). The purified LBD of FXR is labeled with biotin then mixed with stoichiometric amounts of APC labeled streptavidin (Molecular Probes). The biotinylated peptide is then mixed with a ½ stoichiometric amount of europium labeled streptavidin (Wallac Inc). Each is then blocked with a 5 fold excess of biotin and allowed to equilibrate for 15 min. Equimolar amounts of receptor and peptide are mixed together and allowed to equilibrate for at least 30 min prior to the addition to either a variable or constant concentrations of the sample for which the affinity is to be determined. After equilibration, the time-resolved fluorescent signal is quantitated using a fluorescent plate reader. The affinity of the test compound is estimated from a plot of fluorescence versus concentration of test compound added.
Ligands that promote the complex formation induce a concentration-dependent increase in time-resolved fluorescent signal.
Human FXRα Ligand Binding Domain (FXRα LBD) was expressed in E.coli strain BL21 (DE3) as an amino-terminal polyhistidine tagged fusion protein. Expression was under the control of an IPTG inducible T7 promoter. DNA encoding this recombinant protein was subcloned into the pRSET-A expression vector (Invitrogen). The coding sequence of Human FXRα LBD was derived from Genbank accession number U 68233 (amino acids 222 to 472).
Routinely, 30-40 g cell paste (equivalent to 2-3 liters of the fermentation batch) was resuspended in 200-250 mL TBS, pH 7.2 (25mM Tris, 150 mM NaCl). Cells were lysed by passing 3 times through a French Press and cell debris was removed by centrifugation (30 minutes, 20,000 g, 4° C.). The cleared supernatant was filtered through course pre-filters, and TBS, pH 7.2, containing 500 mM imidazole was added to obtain a final imidazole concentration of 50 mM. This lysate was loaded onto a column (6×8 cm) packed with Sepharose [Ni^++ charged]Chelation resin (Pharmacia) and pre-equilibrated with TBS pH 7.21 50 mM imidazole. After washing to baseline absorbance with equilibration buffer, the column was washed with one column volume of TBS pH 7.2 containing 90 mM imidazole. FXRαLBD was eluted directly with 365 mM imidazole. Column fractions were pooled and dialyzed against TBS, pH 7.2, containing 0.5 mM EDTA and 5 mM DTT. The dialyzed protein sample was concentrated using Centri-prep 10 K (Amicon) and subjected to size exclusion, using a column (3×90 cm) packed with Sepharose S-75 resin (Pharmacia) pre-equilibrated with TBS, pH 7.2, containing 0.5 mM EDTA and 5 mM DTT.
Purified FXRα LBD was desalted/buffer exchanged using PD-10 gel filtration columns into PBS [100 mM NaPhosphate, pH 7.2, 150 mM NaCl]. FXRα LBD was diluted to approximately 10 μM in PBS and five-fold molar excess of NHS-LC-Biotin (Pierce) was added in a minimal volume of PBS. This solution was incubated with gentle mixing for 30 minutes at room temperature. The biotinylation modification reaction was stopped by the addition of 2000× molar excess of Tris-HCl, pH 8. The modified FXRα LBD was dialyzed against 4 buffer changes, each of at least 50 volumes, PBS containing 5 mM DTT, 2 mM EDTA and 2% sucrose.

| Structure (SMILES) | EC50 |
| --- | --- |
| COC(=O)c1ccc(S(=O)(=O)Nc2ccc(OCc3c(-c4c(Cl)cccc4Cl)noc3C(C)C)cc2Cl)cc1 [Example 53, Methyl 4-{[(2-chloro-4-{[3-(2,6-dichlorophenyl)-5-isopropylisoxazol-4-yl]methoxy}-phenyl)amino]sulfonyl}benzoate] | 102 to 1000 nM |
| COC(=O)c1ccc(S(=O)(=O)N(C)c2ccc(OCc3c(-c4c(Cl)cccc4Cl)noc3C(C)C)cc2C)cc1 [Example 59, Methyl 4-{[(4-{[3-(2,6-dichlorophenyl)-5-isopropylisoxazol-4-yl]methoxy}-2-methyl-phenyl)(methyl)amino]sulfonyl}benzoate] | 102 to 1000 nM |
| CC(C)c1onc(-c2c(Cl)cccc2Cl)c1COc1ccc(N(C)C(=O)c2cccc(C(=O)O)c2)c(Cl)c1 [Example 30, 3-[(2-Chloro-4-{[3-(2,6-dichlorophenyl)-5-isopropyl-4-isoxazolyl]methoxy}methylanilino)carbonyl]benzoic acid] | 102 to 1000 nM |
| Cc1cc(OCc2c(-c3c(Cl)cccc3Cl)noc2C(C)C)ccc1N(C)Cc1ccc2nonc2c1 [Example 7, N-(2,1,3-Benzoxadiazol-5-ylmethyl)-4-{[3-(2,6-dichlorophenyl)-5-isopropyl-4-isoxazolyl]methoxy}-N,2-dimethylaniline] | 102 to 1000 nM |
| COC(=O)c1ccc(CN(C)c2ccc(OCc3c(-c4ccccc4OC(F)(F)F)noc3C(C)C)cc2C)cc1 [Example 22, Methyl 4-{[4-({5-isopropyl-3-[2-(trifluoromethoxy)phenyl]-4-isoxazolyl}methoxy)-2-dimethylanilino]methyl}benzoate] | 102 to 1000 nM |
| COC(=O)c1cccc(OCc2ccc(OCc3c(-c4c(Cl)cccc4Cl)noc3C(C)C)cc2Cl)c1 [Example 76, Methyl 3-[(2-chloro-4-{[3-(2,6-dichlorophenyl)-5-isopropylisoxazol-4-yl]methoxy}benzyl)-oxy]benzoate] | 102 to 1000 nM |
| CCN(c1ccc(OCc2c(-c3c(Cl)cccc3Cl)noc2C(C)C)cc1Cl)S(=O)(=O)c1cccc(C(=O)OC)c1 [Example 43, Methyl 3-{[(2-chloro-4-{[3-(2,6-dichlorophenyl)-5-isopropylisoxazol-4-yl]methoxy}-phenyl)(ethyl)amino]sulfonyl}benzoate] | 1020 to 10000 nM |
| CC(C)c1onc(-c2ccccc2OC(F)(F)F)c1COc1ccc(CSc2cccc(C(=O)O)c2)c(Cl)c1 [Example 90, 3-{[2-Chloro-4-({5-isopropyl-3-[2-(trifluoromethoxy)phenyl]isoxazol-4-yl}methoxy)-benzyl]thio}benzoic acid] | 102 to 1000 nM |
| CC(C)c1onc(-c2c(Cl)cccc2Cl)c1COc1ccc(NS(=O)(=O)c2cccc(C(=O)O)c2)cc1 [Example 40, 3-{[(4-{[3-(2,6-Dichlorophenyl)-5-isopropylisoxazol-4-yl]methoxy}phenyl)amino]-sulfonyl}benzoic acid] | 1020 to 10000 nM |
| Cc1cc(OCc2c(Cc3ccccc3Cl)noc2C(C)C)ccc1N(C)Cc1cccc(C(=O)O)c1 [Example 16, 3-{[(4-{[3-(2-Chlorobenzyl)-5-isopropylisoxazol-4-yl]methoxy}-2-methylphenyl)(methyl)-amino]methyl}benzoic acid] | 102 to 1000 nM |
| Cc1cc(OCc2c(-c3ccccc3OC(F)(F)F)noc2C(C)C)ccc1N(C)Cc1ccc(C(=O)O)cc1 [Example 19, 4-{[4-({5-Isopropyl-3-[2-(trifluoromethoxy)phenyl]-4-isoxazolyl}methoxy)-2-dimethylanilino]methyl}benzoic acid] | < 100 nM |
| COC(=O)c1cccc(SCc2ccc(OCc3c(-c4ccccc4OC(F)(F)F)noc3C(C)C)cc2C)c1 [Example 89, Methyl 3-{[4-({5-isopropyl-3-[2-(trifluoromethoxy)phenyl]isoxazol-4-yl}methoxy)-2-methylbenzyl]thio}benzoate] | 102 to 1000 nM |
| Cc1cc(OCc2c(-c3ccccc3OC(F)(F)F)noc2C(C)C)ccc1N(C)S(=O)(=O)c1cccc(C(=O)O)c1 [Example 73, 3-{[[4-({5-Isopropyl-3-[2-(trifluoromethoxy)phenyl]isoxazol-4-yl}methoxy)-2-methyl-phenyl](methyl)amino]sulfonyl}benzoic acid] | 102 to 1000 nM |
| CCN(c1ccc(OCc2c(-c3c(Cl)cccc3Cl)noc2C(C)C)cc1)S(=O)(=O)c1cccc(C(=O)OC)c1 [Example 45, Methyl 3-{[(4-{[3-(2,6-dichlorophenyl)-5-isopropylisoxazol-4-yl]methoxy}phenyl)(ethyl)-amino]sulfonyl}benzoate] | 1020 to 10000 nM |
| COC(=O)c1cccc(S(=O)(=O)Nc2ccc(OCc3c(-c4c(Cl)cccc4Cl)noc3C(C)C)cc2C)c1 [Example 37, Methyl 3-{[1(4-{[3-(2,6-dichlorophenyl)-5-isopropylisoxazol-4-yl]methoxy}-2-methylphenyl)amino]sulfonyl}benzoate] | 102 to 1000 nM |
| CC(C)c1onc(-c2c(Cl)cccc2Cl)c1COc1ccc(N(C)C(=O)c2ccc(C(=O)O)cc2)c(Cl)c1 [Example 31, 4-[(2-Chloro-4-{[3-(2,6-dichlorophenyl)-5-isopropyl-4-isoxazolyl]methoxy}methylanilino)carbonyl]benzoic acid] | 102 to 1000 nM |
| CC(C)c1onc(-c2ccccc2OC(F)(F)F)c1COc1ccc(N(C)C(=O)c2cccc(C(=O)O)c2)c(Cl)c1 [Example 34, 3-{[2-Chloro-4-({5-isopropyl-3-[2-(trifluoromethoxy)phenyl]-4-isoxazolyl}methoxy)methylanilino]carbonyl}benzoic acid] | 102 to 1000 nM |
| CC(C)c1onc(-c2ccccc2OC(F)(F)F)c1COc1ccc(N(C)S(=O)(=O)c2cccc(C(=O)O)c2)c(Cl)c1 [Example 72, 3-{[[2-Chloro-4-({5-isopropyl-3-[2-(trifluoromethoxy)phenyl]isoxazol-4-yl}methoxy)-phenyl](methyl)amino]sulfonyl}benzoic acid] | 102 to 1000 nM |
| Cc1cc(OCc2c(-c3c(Cl)cccc3Cl)noc2C(C)C)ccc1NS(=O)(=O)c1cccc(C(=O)O)c1 [Example 39, 3-{[(4-{[3-(2,6-Dichlorophenyl)-5-isopropylisoxazol-4-yl]methoxy}-2-methylphenyl)-amino]sulfonyl}benzoic acid] | 102 to 1000 nM |
| CCOC(=O)c1cccc(NCc2ccc(OCc3c(-c4ccccc4OC(F)(F)F)noc3C(C)C)cc2Cl)c1 [Example 95, Ethyl 3-{[2-chloro-4-({5-isopropyl-3-[2-(trifluoromethoxy)phenyl]-4-isoxazolyl}methoxy)benzyl]amino}benzoate] | 102 to 1000 nM |
| Cc1cc(OCc2c(-c3ccccc3OC(F)(F)F)noc2C(C)C)ccc1COc1cccc(C(=O)O)c1 [Example 86, 3-{[4-({5-Isopropyl-3-[2-(trifluoromethoxy)phenyl]isoxazol-4-yl}methoxy)-2-methyl-benzyl]oxy}benzoic acid] | 102 to 1000 nM |
| Cc1cc(OCc2c(-c3ccccc3OC(F)(F)F)noc2C(C)C)ccc1N(C)Cc1cccc(C(=O)O)c1 [Example 20, 3-{[4-({5-Isopropyl-3-[2-(trifluoromethoxy)phenyl]-4-isoxazolyl}methoxy)-2-dimethylanilino]methyl}benzoic acid] | < 100 nM |
| CC(C)c1onc(-c2c(Cl)cccc2Cl)c1COc1ccc(NS(=O)(=O)c2ccc(C(=O)O)cc2)cc1 [Example 58, 4-{[(4-{[3-(2,6-Dichlorophenyl)-5-isopropylisoxazol-4-yl]methoxy}phenyl)amino]-sulfonyl}benzoic acid] | 102 to 1000 nM |
